# Test results: article PMC10480042 (ACS applied materials & interfaces, 2023)
# No end group written: not given here.
# Assays:
# Aβ42 [1] = biological target: T1, Aβ42 (Homo sapiens, UniProt P05067); assay: CD spectroscopy; format: biochemical; settings: co-incubation with Spike1058, dose-dependent, 48 h, 37 °C
# Aβ42 [2] = biological target: T1, Aβ42; format: biochemical
# Aβ42 [3] = biological target: T1, Aβ42; assay: SEC-HPLC-UV of Aβ42 and Spike1058 co-aggregation; format: biochemical; settings: molar ratio 1:2, 4 h, 37 °C, UV 220 nm, PBS pH 5.6
# Aβ42 [4] = biological target: T1, Aβ42; assay: biochemical; format: binding
# zebrafish embryos [5] = settings: in vivo
# zebrafish embryos [6] = settings: in vivo; remark: listed apart in the source
# T1 sequence (P05067 672-713): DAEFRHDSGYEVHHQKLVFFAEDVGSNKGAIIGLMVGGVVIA
sequence,measurement,setting,value
HGVVFLHVTYV [Spike1058],increase of β-sheet content of Aβ by co-incubation (CD),Aβ42 [1],16-35%
same,increase of Aβ's β-sheet content by co-incubation,Aβ42 [2],7-33%
same,decrease of amount of Spike1058 in mixed Aβ-Spike1058 sample,Aβ42 [3],39.54%
same,Kd,Aβ42 [4],82.6 nM
same,cell mortality,SH-SY5Y cells,elevated in a dose-dependent manner
same,cell mortality vs Aβ control,SH-SY5Y cells,less deleterious than Aβ control
same,number of viable SH-SY5Y cells at increasing Spike:Aβ molar ratios,SH-SY5Y cells,gradual decline in number
same,"impact on cell viability, less than Aβ control",SH-SY5Y cells; 25 µM,11%
same,viable SH-SY5Y cells compared with Aβ control group,SH-SY5Y cells; 24 h,22%
same,hatching interference and mortality compared to control group,zebrafish embryos [5],pronounced hatching interference and mortality
same,hatching rate in comparison to Aβ or Spike1058 alone,zebrafish embryos [5],significantly decreased
same,influence on hatching and mortality rate relative to Aβ,zebrafish embryos [5],more substantial influence than Aβ
same,survival rate in comparison to Aβ or Spike1058 alone,zebrafish embryos [5],significantly decreased
same,"generation of biotic ROS, surpassing levels with Aβ or Spike1058 alone",zebrafish embryos [6],significant increase
